Source: the supplement of paper PMC10307832

Each cell line was assayed with CC1=CC(=C(N1C2=CC=C(C=C2)Cl)C)C(=O)CN3CCCCC3 [IU1-47] + COc1cc2c(Oc3ccc(NC(=O)C4(C(=O)Nc5ccc(F)cc5)CC4)cc3F)ccnc2cc1OCCCN1CCOCC1 [Foretinib] (partner 0.25 µM) (assay: relative viability (nuclei count vs DMSO), 5 days (fraction); higher = more cells survive). Details: first compound 8 µM.
In short: (§1)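 After 5 days of treatment, lung cancer cells in 1536-well plates were fixed and stained in a single step (final 0.05% Triton X-100, 1% formaldehyde, 1 ug/ml Hoechst) and their nuclei counted on 4× images. Treatment had been applied by pin tool the day after seeding as one drug alone or as a fixed anchor-drug dose with five library-drug doses (not always all listed) in √10 steps. Relative viability is the nuclei count of treated wells divided by that of vehicle wells, and values are medians of duplicate plates.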

| Cell Line | relative viability |
| --- | --- |
| EBC-1 | 0.102 |
| NCI-H1703 | 0.361 |
| NCI-H1993 | 0.748 |
| SW 1573 | 1.02 |
| NCI-H838 | 1.11 |
| LCLC-103H | 0.865 |
| NCI-H520 | 0.651 |
| NCI-H2126 | 1.03 |
| EMC-BAC-2 | 1.05 |
| NCI-H2085 | 0.767 |
| Calu-6 | 0.874 |
| HCC-366 | 1.01 |
| NCI-H1666 | 0.896 |
| NCI-H596 | 0.761 |
| LK-2 | 0.943 |
| NCI-H2087 | 1.18 |
| NCI-H2342 | 1.03 |

| Cell Line | relative viability |
| --- | --- |
| SK-MES-1 | 0.921 |
| H3255 | 0.832 |
| COR-L23 | 1.16 |
| COR-L 105 | 1.4 |
| IA-LM | 1 |
| LOU-NH91 | 0.966 |
| ChaGo-K-1 | 0.81 |
| NCI-H2170 | 1.24 |
| A549 | 0.889 |
| SW 900 | 0.734 |
| NCI-H2009 | 1.23 |
| NCI-H661 | 1.2 |
| SK-LU-1 | 0.868 |
| NCI-H1299 | 1.01 |
| NCI-H2228 | 0.75 |
| NCI-H2023 | 0.719 |
| NCI-H1563 | 0.864 |

These cell lines were tested with Cc1nc(C(=O)NCC(=O)O)c(O)c2ccc(Oc3ccccc3)cc12 [FG-4592] + Cc1nc(NC(=O)N2CCC[C@H]2C(N)=O)sc1-c1ccnc(C(C)(C)C(F)(F)F)c1 [Alpelisib] (partner 2 µM) in the same assay as above. Details: first compound 0.08 µM.
In short: as §1

| Cell Line | relative viability |
| --- | --- |
| NCI-H727 | 0.533 |
| EBC-1 | 0.895 |
| NCI-H1703 | 0.255 |
| NCI-H1993 | 0.689 |
| SW 1573 | 0.781 |
| NCI-H838 | 0.877 |
| LCLC-103H | 0.887 |
| NCI-H520 | 0.908 |
| NCI-H2126 | 0.744 |
| EMC-BAC-2 | 0.745 |
| NCI-H2085 | 0.911 |
| Calu-6 | 0.952 |
| HCC-366 | 0.285 |
| NCI-H1666 | 0.866 |
| NCI-H596 | 0.418 |
| NCI-H2087 | 1.11 |
| SK-MES-1 | 0.953 |

| Cell Line | relative viability |
| --- | --- |
| H3255 | 0.634 |
| COR-L23 | 0.751 |
| COR-L 105 | 1.07 |
| IA-LM | 0.827 |
| LOU-NH91 | 0.698 |
| NCI-H2170 | 0.823 |
| HCC-44 | 0.767 |
| A549 | 0.831 |
| NCI-H2009 | 1.18 |
| NCI-H661 | 0.386 |
| SK-LU-1 | 1.02 |
| NCI-H1299 | 1.06 |
| NCI-H2228 | 0.536 |
| NCI-H1792 | 0.78 |
| NCI-H2023 | 0.683 |
| NCI-H1563 | 1.03 |

Same assay, conditions: first compound 0.253 µM

| Cell Line | relative viability |
| --- | --- |
| NCI-H727 | 0.582 |
| EBC-1 | 0.816 |
| NCI-H1703 | 0.354 |
| NCI-H1993 | 0.614 |
| SW 1573 | 0.733 |
| NCI-H838 | 0.933 |
| LCLC-103H | 0.875 |
| NCI-H520 | 0.972 |
| NCI-H2126 | 0.787 |
| EMC-BAC-2 | 0.718 |
| NCI-H2085 | 0.889 |
| Calu-6 | 0.846 |
| HCC-366 | 0.386 |
| NCI-H1666 | 0.862 |
| NCI-H596 | 0.482 |
| LK-2 | 1.05 |
| NCI-H2087 | 0.956 |

| Cell Line | relative viability |
| --- | --- |
| SK-MES-1 | 0.892 |
| H3255 | 0.664 |
| COR-L23 | 0.653 |
| COR-L 105 | 0.91 |
| IA-LM | 0.707 |
| LOU-NH91 | 0.614 |
| NCI-H2170 | 0.801 |
| HCC-44 | 0.786 |
| A549 | 0.626 |
| NCI-H2009 | 1.06 |
| NCI-H661 | 0.581 |
| SK-LU-1 | 0.925 |
| NCI-H1299 | 0.999 |
| NCI-H2228 | 0.545 |
| NCI-H1792 | 0.635 |
| NCI-H2023 | 0.569 |
| NCI-H1563 | 0.949 |

Same assay, conditions: first compound 0.8 µM

| Cell Line | relative viability |
| --- | --- |
| NCI-H727 | 0.545 |
| EBC-1 | 0.736 |
| NCI-H1703 | 0.295 |
| NCI-H1993 | 0.622 |
| SW 1573 | 0.852 |
| NCI-H838 | 0.98 |
| LCLC-103H | 0.749 |
| NCI-H520 | 0.952 |
| NCI-H2126 | 0.661 |
| EMC-BAC-2 | 0.705 |
| NCI-H2085 | 0.967 |
| Calu-6 | 1.12 |
| HCC-366 | 0.408 |
| NCI-H1666 | 0.953 |
| NCI-H2087 | 1.11 |
| SK-MES-1 | 0.85 |

| Cell Line | relative viability |
| --- | --- |
| H3255 | 0.67 |
| COR-L23 | 0.918 |
| COR-L 105 | 0.981 |
| IA-LM | 0.878 |
| LOU-NH91 | 0.613 |
| NCI-H2170 | 0.794 |
| HCC-44 | 0.876 |
| A549 | 0.823 |
| NCI-H2009 | 1.19 |
| NCI-H661 | 0.626 |
| SK-LU-1 | 1.07 |
| NCI-H1299 | 1.05 |
| NCI-H2228 | 0.759 |
| NCI-H1792 | 0.544 |
| NCI-H2023 | 0.722 |
| NCI-H1563 | 0.939 |

Same assay, conditions: first compound 2.53 µM

| Cell Line | relative viability |
| --- | --- |
| NCI-H727 | 0.56 |
| EBC-1 | 0.693 |
| NCI-H1703 | 0.326 |
| NCI-H1993 | 0.647 |
| SW 1573 | 0.857 |
| NCI-H838 | 1.01 |
| LCLC-103H | 0.966 |
| NCI-H520 | 0.93 |
| NCI-H2126 | 0.769 |
| EMC-BAC-2 | 0.764 |
| NCI-H2085 | 1.04 |
| Calu-6 | 0.985 |
| HCC-366 | 0.377 |
| NCI-H1666 | 0.886 |
| NCI-H596 | 0.499 |
| LK-2 | 0.929 |
| NCI-H2087 | 1.05 |
| SK-MES-1 | 0.853 |
| H3255 | 0.791 |
| COR-L23 | 0.768 |
| COR-L 105 | 0.732 |
| IA-LM | 0.54 |
| LOU-NH91 | 0.719 |
